Test results as given in US9845482B2, “Compositions and methods for enhancing bioenergetic status in female germ cells” (The General Hospital Corporation, priority 2011, dated 2017).
Entries after “also recorded” stand apart in the source; their conditions may differ. Like-named read-outs stand apart in the source and are kept apart here.

Columns and labels:
[1] = test system: murine OSCs; assay: Mitochondrial DNA copy number in murine OSCs treated with NMN; type: cell-based
Description: FIG. 40 is a graph showing that nicotinamide mononucleotide increases mitochondrial DNA content in murine OSCs. Total cellular DNA was isolated from cells at the indicated time points using DNEASY® Blood & Tissue Kit (Qiagen, Venlo, The Netherlands) according to the manufacturer's instructions. Mt DNA copy number was quantified using LIGHTCYCLER®480 SYBR® Green I Master (Roche Applied Science, Penzberg, Germany) using a LIGHTCYCLER®480 PCR machine (Roche Applied Science, Penzberg, Germany). […]
For all experiments 25,000 cells were plated in each well of a 24 well plate. […] Mitochondrial DNA Copy number was analysed as follows. […] Mitochondrial DNA copy number was quantified using LIGHTCYCLER 480 SYBR® Green I Master (Roche Applied Science, Penzberg, Germany) using the following primers on a LIGHTCYCLER480 PCR machine (Roche Applied Science (Penzberg, Germany).

[2] = test system: murine oogonial stem cells (OSCs); assay: NAD+/NADH quantitation in murine OSCs treated with NMN; type: cell-based; settings: NMN added at 12 h and 6 h prior to analysis
Method: FIGS. 39A-39C are graphs showing that nicotinamide mononucleotides raise cellular NAD^+ and NAD+/NADH in murine oogonial stem cells (OSCs). Oogonial stem cells were isolated from dissociated ovaries using a FACS based sorting protocol to purify OSCs free of contaminating oocytes (see Example 1). Cells were maintained in culture medium consisted of minimum essential medium α (MEMα), 10% FBS, 1 mM sodium pyruvate, 1 mM non-essential amino acids, 2 mM L-glutamine, 0.1 mM β-mercaptoethanol (Sigma Aldrich Corporation, St. Louis, Mo., USA), 10 ng/ml-1 LIF (Millipore), 1× N-2 MAX Media Supplement (R&D) 10 ng/ml EGF (Epidermal growth factor, Recombinant human; Gibco Division of ThermoFisher Scientific, Waltham, Mass., USA), 40 ng/ml human GDNF (glial cell line-derived neurotrophic factor; R&D systems), 1 ng/ml human bFGF (basic fibroblast growth factor; Gibco Division of ThermoFisher Scientific, Waltham, Mass., USA).
Oogonial stem cells were isolated from dissociated ovaries using a FACS based sorting protocol to purify OSCs free of contaminating oocytes (for details, see Example 1), Cells were maintained in culture medium consisted of minimum essential medium α (MEMα), 10% FBS, 1 mM sodium pyruvate, 1 mM […], 2 mM L-1-glutamine, 0.1 mM β-mercaptoethanol (Sigma), 10 ng/ml-1 LIF (Millipore), 1× N-2 MAX Media Supplement (R&D) 10 ng/ml EGF (Epidermal growth factor, Recombinant human; Gibco Division of Thermofisher Scientific, Waltham, Mass., USA), 40 ng/nil human GDNF (glial cell line-derived neurotrophic factor; R&D systems), 1 ng/ml human bFGF (basic fibroblast growth factor; Gibco Division of Thermofisher Scientific, Waltham, Mass., USA)
For all experiments 25,000 cells were plated in each well of a 24 well plate. Cells were allowed to attach for twenty-four hours and then were treated with NMN (β-Nicotinamide mononucleotide; Sigma). Unless otherwise stated, NMN was added twice to the cells, first at twelve hours and then again at six hours prior to analysis (12+6 h). Mitochondrial DNA Copy number was analysed as follows. Total cellular DNA was isolated from cells at the indicated time points using DNeasy Blood & Tissue Kit (Qiagen) according to the manufacturer's instructions. Mitochondrial DNA copy number was quantified using LIGHTCYCLER 480 SYBR® Green I Master (Roche Applied Science, Penzberg, Germany) using the following primers on a LIGHTCYCLER480 PCR machine (Roche Applied Science (Penzberg, Germany).
OSCs and oocytes treated with an NAD precursor (e.g. […] ie. “NMN”, see FIG. 38) had increased NAD^+, NAD^+:NADH, and mitochondrial DNA content (FIG. 40).

[3] = test system: cultured murine oogonial stem cells; assay: Spontaneous oocyte formation in cultured murine OSCs after NMN; type: cell-based; settings: 25,000 OSCs per well of a 24-well plate
Method: FIG. 41 is a graph showing that nicotinamide mononucleotide increases spontaneous oocyte formation in cultured murine oogonial stem cells. For assessment of spontaneous oocyte formation, each well of a 24-well plate was seeded with 25,000 OSCs, and the number of oocytes formed and released into the medium per well was assessed the second day after seeding as well as the designated time points after NMN treatment.
Each well of a 24-well plate was seeded with 25,000 OSCs. The number of oocytes formed and released into the medium per well was assessed the second day after seeding as well as the designated time points after NMN treatment. […] NMN treatment is also expected to enhance the function of OCSsOSCs, oocytes, granulose cells, and blood vessels in the ovary.

[4] = test system: C2C12 cells; assay: Mitochondrial function in C2C12 cells with NMN (scrambled vs SIRT1 shRNA); type: cell-based; settings: SIRT1-dependent manner
Description: (§1) NMN is delivered by intraperitoneal (I.P.) injection and raises NAD levels in brain, heart and skeletal muscle ˜30-100%. NMN increases mitochondrial function in C2C12 cells in a SIRT1-dependent manner (FIGS. 43C, D). sh Ct1=scrambled shRNA, Sh SIRT1=shRNA against SIRT1.

[5] = test system: young and old mice; assay: NAD+ levels in vivo after systemic NMN
Method: FIG. 42 is a graph showing that the NAD^+ precursor NMN raises NAD^+ levels in vivo in young and old mice. Cardiac [NAD^+] declines with age and is reversed by NMN treatment (n=3; 200 mg·kg·d. I.P. for 1 week).
as §1
(§2) NMN and other compounds that increase NAD^+ levels are useful for increasing fertility or otherwise reducing or reversing infertility in a female subject. In one embodiment, such compounds are delivered to a subject orally, by intraperitoneal injection (IP), or subcutaneously to increase the probability that the subject will conceive and deliver healthy offspring. Systemic administration of the NAD^+ precursor NMN raised NAD^+ levels in vivo in young and old mice. Cardiac [NAD^+] declines with age. This decline in NAD^+ was reversed by NMN treatment (n=3; 200 mg·kg·d. I.P. for 1 week)(FIG. 42). […] In another embodiment, NMN and other compounds that increase NAD^+ levels are delivered to an OSC, oocyte, blasotcyst, sperm, or isolated mitochondria in vitro. For example, such compounds are delivered to a germ cell prior to, during or following IVF. In another embodiment, a compound of the invention is used to enhance the yield or preservation of mitochondria from an OSC, oocyte, blasotcyst, sperm, or isolated mitochondria in vitro.

[6] = test system: skeletal muscle of 24-month old mice; assay: Mitochondrial function in vivo after NMN; settings: 1 week of treatment, I.P.
Description: as §1, §2

[7] = test system: Mouse OSCs; assay: NAD+ and NADH levels in mouse OSCs treated with mitochondrial enhancers; type: cell-based; settings: 24 hours
Method: FIG. 35 depicts levels of NAD+ (A) and NADH (B) in OSCs treated with mitochondrial enhancers. Mouse OSCs maintained in culture (Zou et al., Nat Cell Biol 2009 11:631-636) were exposed to the indicated test compounds for 24 hours and then assessed for levels of NAD+ and NADH. Female infertility due to chemotherapy, aging and premature ovarian failure (POF) is due in part to a decline in mitochondrial function in oocytes and OSCs. Accordingly, OSCs from mice were used to screen for small compounds that enhance mitochondrial function (“bioenergetic status”) in female germline cells. Assays for enhancing mitochondrial function included mtDNA content, ATP, NAD+/NADH, mitochondrial mass, mitochondrial membrane potential, and gene expression of known mitochondrial mass regulators and electron transport chain components. All the compounds were dissolved in DMSO. For screening purposes the cells were treated with the vehicle (0.001% DMSO) or with 25 or 50 μM of each compound (except for berberine, which the concentrations used for the screen were 5 μM and 25 μM) for 24 hours. For validation of the top 6 hits, cells were treated with vehicle (0.001% DMSO) or either 5 or 25 μM of each compound for 24 hours. For the gene expression profile, the cells were treated with the concentration that was considered to work better in the previous validation assays.

[8] = test system: OSCs from mice; assay: Screen of mouse OSCs for compounds that enhance mitochondrial function (mtDNA, ATP, mitochondrial mass, membrane potential, gene expression); type: cell-based; settings: 24 hours
Description: Female infertility due to chemotherapy, aging and premature ovarian failure (POF) is due in part to a decline in mitochondrial function in oocytes and OSCs. Accordingly, OSCs from mice were used to screen for small compounds that enhance mitochondrial function (“bioenergetic status”) in female germline cells. Assays for enhancing mitochondrial function included mtDNA content, ATP, NAD+/NADH, mitochondrial mass, mitochondrial membrane potential, and gene expression of known mitochondrial mass regulators and electron transport chain components.
All the compounds were dissolved in DMSO. For screening purposes the cells were treated with the vehicle (0.001% DMSO) or with 25 or 50 μM of each compound (except for berberine, which the concentrations used for the screen were 5 μM and 25 μM) for 24 hours. For validation of the top 6 hits, cells were treated with vehicle (0.001% DMSO) or either 5 or 25 μM of each compound for 24 hours. For the gene expression profile, the cells were treated with the concentration that was considered to work better in the previous validation assays.
Mitochondrial membrane potential was measured with a fluorescent probe, Tetramethylrhodamine methyl ester (TMRM) (Sigma) as described before (Rolo A. P. Biochim. Biophys. Acta 2003 1637: 127-132). Briefly the cells were loaded with 6.6 μM TMRM in HBSS buffer at 37° C. for 15 minutes in the dark. The supernatant was then aspirated, and the cells returned to the original volume with KHH. TMRM is a membrane-permeable cationic fluorophore that accumulates electrophoretically in mitochondria in proportion to their mitochondrial membrane potential (Ehrenberg B. V. et al. Biophys. J. 1988 53:785-794). Cell suspensions (200 μl containing 10^5 cells) were loaded into 96-well plates and fluorescence measured using excitation and emission wavelengths of 485 and 590 nm, respectively. Mitochondrial membrane potential was estimated, taking into account the complete depolarization caused by carbonyl cyanide p-(trifluoromethoxy)phenylhydrazone (FCCP).
For mtDNA analysis, total DNA was extracted with DNeasy blood and tissue kit (QIAGEN). mtDNA was amplified using primers specific for the mitochondrial cytochrome c oxidase subunit 2 (COX2) gene and normalized to genomic DNA by amplification of the ribosomal protein s18 (rps18) nuclear gene. Primers were designed using the IDT software (IDT).
ATP content was measured using a luciferase-based assay with a commercial kit according to the manufacturer's instructions (Roche Applied Science, Penzberg, Germany) and normalized to protein content in each sample.
Mitochondrial mass was evaluated using the fluorescent probe N-nonyl acridine orange (NAO), briefly the cells were incubated in culture media containing 10 nM of NAO for 30 minutes at 37° C. in the dark. The cells were then trypsinized and resuspended in culture media without NAO. The NAO fluorescence intensity was then determined by flow cytometry on the FACSCALIBUR® (BD Biosciences, San Jose, Calif., USA) using the 488 nm laser.
For gene expression analysis, RNA from skeletal muscle tissue and C2C12 cells were extracted with RNeasy mini kit (QIAGEN) according to the instructions and quantified using the NanoDrop 1000 spectrophotometer (Thermo Scientific). cDNA was synthesized with the iSCRIP cDNA synthesis kit (BioRad) using 200 ng of RNA. Quantitative RT-PCR reactions were performed using 1 μM of primers and LIGHTCYCLER® 480 SYBR® Green Master (Roche Applied Science, Penzberg, Germany) on an LIGHTCYCLER® 480 detection system (Roche Applied Science, Penzberg, Germany). Calculations were performed by a comparative method (2-ΔΔCT) using actin as an internal control. Primers were designed using the IDT software (IDT).

[9] = listed as nicotinamide mononucleotide
[10] = listed as nicotinamide mononucleotides

Question: With `NC(=O)c1ccc[n+]([C@@H]2O[C@H](COP(=O)([O-])O)[C@@H](O)[C@H]2O)c1` [NMN, β-Nicotinamide mononucleotide] as the molecule, how does the “mitochondrial DNA content” value [1] read?
Answer: Its value is “increased”.

Question: And the “mitochondrial DNA content” value [1, 9]?
Answer: The value was “increases”.

Question: What about the “NAD+/NADH” value [2] of the same molecule?
Answer: Its value is “increased”.

Question: And the “cellular NAD^+” value [2]?
Answer: Its value is “increased”.

Question: And the “NAD+/NADH” value [2, 10]?
Answer: The value was “raise”.

Question: And the “cellular NAD^+” value [2, 10]?
Answer: Its value is “raise”.

Question: What about the “spontaneous oocyte formation (rate of egg formation, EFA)” value [3] of the same molecule?
Answer: The value was “increased”.

Question: And the “spontaneous oocyte formation (rate of egg formation, EFA)” value [3, 9]?
Answer: The value was “increases”.

Question: What about the “mitochondrial function in C2C12 cells” value [4] of the same molecule?
Answer: The value was “increases”.

Question: And the “decline of cardiac [NAD^+] with age” value ([5]; 200 mg·kg·d. I.P. for 1 week, n=3)?
Answer: Its value is “reversed”.

Question: And the “raise of NAD levels in brain, heart and skeletal muscle” value ([5]; intraperitoneal (I.P.) injection)?
Answer: Its value is 30-100%.

Question: And the “NAD^+ levels in vivo” value ([5]; young and old mice, systemic administration)?
Answer: Its value is “raises”.

Question: And the “mitochondrial function in vivo (decline in skeletal muscle of 24-month old mice)” value [6]?
Answer: The value was “restorative effect; also recorded: completely reversed”.

Question: Which results are given for `N#CC(C#N)=Cc1ccc(O)cc1` [tyrphostin 8, 2[(4-hydroxyphenyl)methylidene]propanedinitrile]?
Answer: NAD^+ levels [7]: raise; mitochondrial parameters [8]: increase mitochondrial parameters in a beneficial way; activity above the baseline (DMSO alone), scored as a positive result ([8]; 25 or 50 μM (berberine 5 μM and 25 μM)): activity above the baseline
